{"source": "ChEMBL document CHEMBL5728379", "about": "“Pyrido five-element aromatic ring compound, preparation method therefor and use thereof” (2021)", "experiment": "Enzyme-Linked Immunosorbent Assay: EZH2 wild type: Experimental method: avdin of a final concentration of 100 nM was used to coat 96-well plate at 10 μL/well, placed in a wet box and shaken overnight, and then 100 μL 3% BSA per well was added and blocked for 1 h at room temperature. PRC2 complex (EZH2/EED/SUZ12/RbAp48/AEBP2), H3 (21-44) me0 substrate, methyl donor SAM and compound were added into each well of the blocked 96-well plate. The total reaction system was 100 μL, placed in a wet box and allowed to react for 1 h on shaker at room temperature. The plate was washed with TBS-T [20 mM Tris-HCl (pH 7.2-7.4, room temperature), 150 mM NaCl, 0.1% (v/v) Tween-20] for 3 times, blocked with 3% BSA for 10 min, and anti-H3K27me3 antibody was added and incubated for 1 h in a wet box on shaker at room temperature. The plate was washed again with TBS-T for 3 times, and blocked with 3% BSA per well for 10 min. Horseradish peroxidase-labeled secondary antibody was added and reacted in a wet box at room temperature for 1 h, and finally, washed with TBS-T for 3 times. 2 mg/ml OPD color developing solution (1004/well) was added for coloring, and the reaction was stopped with 2M H2SO4 (50 μL/well). The plate was read by a plate reader at 490 nm and IC50 of the compound was calculated using SoftMax Pro 5.4.1 software."}
{"smiles": "Cc1cc(C)c(CNC(=O)c2cc3cccn3c(C(C)OCc3ccnn3C)c2C)c(=O)[nH]1", "note": "(stereo unspecified)", "values": [{"measurement": "IC50", "result": "< 100", "unit": "nM"}]}
